Each molecule was assayed against T1, Dopamine beta-hydroxylase (Bos taurus, UniProt P15101) (assay: Compound was evaluated for the inhibition of Dopamine beta hydroxylase at pH 4.5).
T1 sequence (P15101 whole entry): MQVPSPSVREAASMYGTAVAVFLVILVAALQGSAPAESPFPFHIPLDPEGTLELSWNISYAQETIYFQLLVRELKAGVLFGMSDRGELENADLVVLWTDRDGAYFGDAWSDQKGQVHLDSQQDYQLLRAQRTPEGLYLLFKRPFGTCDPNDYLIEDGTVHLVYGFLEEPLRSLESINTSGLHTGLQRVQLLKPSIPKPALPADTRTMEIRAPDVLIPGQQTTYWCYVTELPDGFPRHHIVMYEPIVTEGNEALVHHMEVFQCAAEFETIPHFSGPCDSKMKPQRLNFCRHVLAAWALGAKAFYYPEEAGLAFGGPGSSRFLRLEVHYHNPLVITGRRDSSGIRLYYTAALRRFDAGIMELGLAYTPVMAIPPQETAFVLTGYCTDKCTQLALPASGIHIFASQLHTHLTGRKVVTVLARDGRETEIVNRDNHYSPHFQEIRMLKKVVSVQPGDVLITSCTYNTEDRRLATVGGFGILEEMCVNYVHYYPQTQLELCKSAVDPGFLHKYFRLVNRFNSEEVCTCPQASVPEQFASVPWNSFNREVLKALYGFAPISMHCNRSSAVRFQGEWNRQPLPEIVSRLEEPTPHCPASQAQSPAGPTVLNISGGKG
For `Cn1cc[nH]c1=S` [METHIMAZOLE], the Ki was 45 µM.

These molecules were tested against T2, Dopamine beta-hydroxylase (Bos taurus) (UniProt P15101) (assay: Compound was evaluated for the inhibition of Dopamine beta hydroxylase at a concentration of 10e-4 M.).
T2 sequence (whole entry): T1 sequence (P15101 whole entry)
Molecule `Oc1ccc(CCCCCn2ccnc2S)cc1` has an inhibition of 30%.

Each molecule was assayed against T2, Dopamine beta-hydroxylase (Bos taurus) (assay: Inhibition of Dopamine beta hydroxylase at a concentration of 10e-4 M.).
With `COc1ccc(-n2ccnc2S)cc1` the inhibition was 25%.
With `NCC(c1ccccc1)n1ccnc1S` (configuration not stated) the inhibition was 0%.
`NC(=O)C(c1ccccc1)n1ccnc1S` (configuration not stated) showed an inhibition of 4%.
With `Oc1ccc(CCCCn2ccnc2S)cc1` the inhibition was 12%.
For `O=S(=O)(CCn1ccnc1S)c1ccccc1`, the inhibition was 5%.
In the case of `OC(Cc1ccccc1)Cn1ccnc1S` (configuration not stated), the inhibition is reported as 5%.

What follows are molecules tested against T1, Dopamine beta-hydroxylase (assay: Inhibition of Dopamine beta hydroxylase.).
With `COc1ccc(Cn2cc[nH]c2=S)cc1` the IC50 was 202 µM.
With `Sc1nccn1-c1ccccc1` the IC50 was 110 µM.
With `S=c1[nH]ccn1CCOc1ccccc1` the IC50 was 87 µM.
With `COc1ccc(CCCCCn2cc[nH]c2=S)cc1` the IC50 was 109 µM.
Molecule `Oc1ccc(CCn2cc[nH]c2=S)cc1` has an IC50 of 23 µM.
With `Sc1nccn1CCCc1ccccc1` the IC50 was 16 µM.
Molecule `S=c1[nH]ccn1Cc1ccccc1` has an IC50 of 32 µM.
With `CC(CCc1ccccc1)n1ccnc1S` (configuration not stated) the IC50 was 325 µM.
`Cn1cc[nH]c1=S` [METHIMAZOLE] showed an IC50 of 754 µM.
`COc1ccc(CCn2ccnc2S)cc1` gave an IC50 of 68 µM.
`COc1ccc(CCCn2cc[nH]c2=S)cc1` was tested, and the IC50 was 180 µM.
`CC(Cc1ccccc1)Cn1cc[nH]c1=S` (configuration not stated) showed an IC50 of 29 µM.
`Oc1ccc(-n2ccnc2S)cc1` was tested, and the IC50 was 370 µM.
With `Oc1ccc(CCCn2cc[nH]c2=S)cc1` the IC50 was 2.2 µM.
With `S=c1[nH]ccn1CCSc1ccccc1` the IC50 was 103 µM.
`COc1ccc(CCCCn2cc[nH]c2=S)cc1` gave an IC50 of 152 µM.
In the case of `Oc1ccc(Cn2cc[nH]c2=S)cc1`, the IC50 is reported as 2.6 µM.
`CC(CCn1cc[nH]c1=S)c1ccccc1` (configuration not stated) showed an IC50 of 18 µM.

What follows are molecules tested against T1, Dopamine beta-hydroxylase (assay: Compound was evaluated for the inhibition of Dopamine beta hydroxylase at pH 6.6).
`Cn1cc[nH]c1=S` [METHIMAZOLE] showed a Ki of 716 µM.

Source: ChEMBL document CHEMBL1123383, “Multisubstrate inhibitors of dopamine beta-hydroxylase. 1. Some 1-phenyl and 1-phenyl-bridged derivatives of imidazole-2-thione” (J Med Chem, 1986)
